According to ChEMBL document CHEMBL5512659, “Structure optimizing of flavonoids against both MRSA and VRE” (Eur J Med Chem, 2024):
Values after ≈ are worked out from the molar mass of the structure shown. Active and inactive are the calls of the source. The calls are words filed in the database; no cut-off is given here.

What was measured:
[1] = system: Staphylococcus aureus; assay: Antibacterial activity against methicillin resistant Staphylococcus aureus clinical isolate 031; assay type: functional
[2] = system: Staphylococcus aureus; assay: Antibacterial activity against Staphylococcus aureus clinical isolate 29; assay type: functional
[3] = system: Staphylococcus aureus; assay: Antibacterial activity against methicillin resistant Staphylococcus aureus clinical isolate 003 in presence of 140 mM/L Na+ (reference value: 1 ug/ml); assay type: functional
[4] = system: Staphylococcus aureus; assay: Antibacterial activity against methicillin resistant Staphylococcus aureus clinical isolate 003 in presence of 4.5 mM/L K+ (reference value: 1 ug/ml); assay type: functional
[5] = system: Staphylococcus aureus; assay: Antibacterial activity against methicillin resistant Staphylococcus aureus clinical isolate 003 in presence of 2.5 mM/L Ca2+ (reference value: 1 ug/ml); assay type: functional
[6] = system: Enterococcus faecalis; assay: Bactericidal activity against multidrug resistant Enterococcus faecalis ATCC 51299 assessed as inhibition of bacterial growth by measuring ratio of MBC to MIC; assay type: functional
[7] = system: Staphylococcus aureus; assay: Antibiofilm activity in methicillin resistant Staphylococcus aureus clinical isolate 003 assessed as destruction of biofilm integrity at 0.5 to 4 times MIC measured after 24 hrs by inverted fluorescence microscopic analysis; assay type: functional, organism-based
[8] = system: Enterococcus faecalis; assay: Antibiofilm activity in multidrug resistant Enterococcus faecalis ATCC 51299 assessed as biofilm clearance rate at 4 times MIC by crystal violet staining based analysis relative to control; assay type: functional
[9] = system: Cell membrane; assay: Induction of membrane damage in methicillin resistant Staphylococcus aureus clinical isolate 003 assessed as rupture of bacterial surface at 2 to 4 times MIC by SEM analysis; assay type: cell membranes
[10] = system: Staphylococcus aureus; assay: Antibacterial activity against methicillin resistant Staphylococcus aureus clinical isolate 003 in presence of peptidoglycan; assay type: functional, organism-based
[11] = system: Staphylococcus aureus; assay: Antibacterial activity against methicillin resistant Staphylococcus aureus clinical isolate 003 in presence of phosphatidylethanolamine; assay type: functional, organism-based
[12] = system: Cell membrane; assay: Disruption of membrane permeability in multidrug resistant Enterococcus faecalis ATCC 51299 assessed as nucleic acid leakage at 2 to 4 times MIC
[13] = system: Cell membrane; assay: Disruption of membrane permeability in methicillin resistant Staphylococcus aureus clinical isolate 003 assessed as increase in ROS accumulation at 2 to 4 times MIC measured after 1 hr
[14] = system: Cell membrane; assay: Induction of cell membrane damage in multidrug resistant Enterococcus faecalis ATCC 51299 assessed as bacterial death at 2 to 4 times MIC by confocal laser scanning microscopy; assay type: cell membranes
[15] = system: Staphylococcus aureus; assay: Antibacterial activity against methicillin resistant Staphylococcus aureus clinical isolate 003 in presence of 140 mM/L Na+ (reference value: 0.5 ug/ml); assay type: functional
[16] = system: Enterococcus faecalis; assay: Antibacterial activity against multidrug resistant Enterococcus faecalis ATCC 51299 in presence of 140 mM/L Na+ (reference value: 1 ug/ml); assay type: functional
[17] = system: Enterococcus faecalis; assay: Antibacterial activity against multidrug resistant Enterococcus faecalis ATCC 51299 in presence of 4.5 mM/L K+ (reference value: 1 ug/ml); assay type: functional
[18] = system: Enterococcus faecalis; assay: Antibacterial activity against multidrug resistant Enterococcus faecalis ATCC 51299 in presence of 2.5 mM/L Ca+ (reference value: 1 ug/ml); assay type: functional
[19] = system: Staphylococcus aureus; assay: Antibacterial activity against methicillin resistant Staphylococcus aureus clinical isolate 003 in presence of 1 mM/L Mg2+ (reference value: 0.5 ug/ml); assay type: functional
[20] = system: Enterococcus faecalis; assay: Antibacterial activity against multidrug resistant Enterococcus faecalis ATCC 51299 in presence of 1 mM/L Mg2+ (reference value: 1 ug/ml); assay type: functional
[21] = system: Staphylococcus aureus; assay: Antibacterial activity against methicillin resistant Staphylococcus aureus clinical isolate 003 in presence of 4.5 mM/L K+ (reference value: 0.25 ug/ml); assay type: functional
[22] = system: Staphylococcus aureus; assay: Antibacterial activity against methicillin resistant Staphylococcus aureus clinical isolate 003 in presence of 2.5 mM/L Ca2+ (reference value: 0.25 ug/ml); assay type: functional
[23] = system: Staphylococcus aureus; assay: Antibacterial activity against methicillin resistant Staphylococcus aureus clinical isolate 003 in presence of 1 mM/L Mg2+ (reference value: 0.25 ug/ml); assay type: functional
[24] = Cytotoxicity against HEK293T cells assessed as cell viability at 64 ug/ml measured after 48 hrs relative to control; assay type: toxicity, cell-based, HEK-293T; conditions: human, at 64 µg/mL, read-out: Activity
[25] = Cytotoxicity against human L02 cells assessed as cell viability at 64 ug/ml measured after 48 hrs relative to control; assay type: toxicity, cell-based; conditions: at 64 µg/mL, read-out: Activity
[26] = system: Staphylococcus aureus; assay: Additive antibacterial activity against methicillin resistant Staphylococcus aureus clinical isolate 003 assessed as fractional inhibitory concentration in presence of ampicillin; assay type: functional
[27] = system: Staphylococcus aureus; assay: Additive antibacterial activity against methicillin resistant Staphylococcus aureus clinical isolate 003 assessed as fractional inhibitory concentration in presence of adriamycin hydrochloride; assay type: functional
[28] = system: Staphylococcus aureus; assay: Synergistic antibacterial activity against methicillin resistant Staphylococcus aureus clinical isolate 003 assessed as fractional inhibitory concentration in presence of lincomycin hydrochloride; assay type: functional
[29] = system: Staphylococcus aureus; assay: Synergistic antibacterial activity against methicillin resistant Staphylococcus aureus clinical isolate 003 assessed as fractional inhibitory concentration in presence of norfloxacin; assay type: functional
[30] = system: Enterococcus faecalis; assay: Additive antibacterial activity against multidrug resistant Enterococcus faecalis ATCC 51299 assessed as fractional inhibitory concentration in presence of streptomycin; assay type: functional
[31] = system: Enterococcus faecalis; assay: Synergistic antibacterial activity against multidrug resistant Enterococcus faecalis ATCC 51299 assessed as fractional inhibitory concentration in presence of azithromycin; assay type: functional
[32] = system: Staphylococcus aureus; assay: (§1) Antibacterial activity against methicillin resistant Staphylococcus aureus clinical isolate 003 infected in cyclophosphamide immunosuppressed mouse model of skin wound infection assessed as reduction in bacterial load in wound at 2.5 mg/kg administered for 7 days and measured on day 8 (reference value: 1.6 x 10^8 CFU); assay type: functional; conditions: time 8 day
[33] = system: Staphylococcus aureus; assay: as §1, with “5” for “2.5”; assay type: functional; conditions: time 8 day
[34] = system: Staphylococcus aureus; assay: Antibacterial activity against methicillin resistant Staphylococcus aureus clinical isolate 003 infected in cyclophosphamide immunosuppressed mouse model of skin wound infection assessed as reduction in inflammatory cells in skin at 1.25 to 5 mg/kg administered for 7 days and measured on day 8 by H and E staining based analysis; assay type: functional, organism-based; conditions: dose 1.25-5 mg/kg, time 8.0 day
[35] = system: Staphylococcus aureus; assay: Antibacterial activity against methicillin resistant Staphylococcus aureus clinical isolate 003 infected in cyclophosphamide immunosuppressed mouse model of skin wound infection assessed as increase in wound healing by measuring increase in VEGF expression at 1.25 to 5 mg/kg administered for 7 days and measured on day 8 by immunohistochemical analysis; assay type: functional, organism-based; conditions: dose 1.25-5 mg/kg, time 8.0 day
[36] = system: Enterococcus faecalis; assay: Antibacterial activity against multidrug resistant Enterococcus faecalis ATCC 51299 infected in cyclophosphamide immunosuppressed mouse model of abdominal infection assessed as eradication of bacterial colonies in kidney at 1.25 to 5 mg/kg measured after 60 hrs relative to control; assay type: functional; conditions: dose 1.25-5 mg/kg
[37] = system: Enterococcus faecalis; assay: Antibacterial activity against multidrug resistant Enterococcus faecalis ATCC 51299 infected in cyclophosphamide immunosuppressed mouse model of abdominal infection assessed as eradication of bacterial colonies in ascites at 1.25 to 5 mg/kg measured after 60 hrs relative to control; assay type: functional; conditions: dose 1.25-5 mg/kg
[38] = system: Enterococcus faecalis; assay: Antibacterial activity against multidrug resistant Enterococcus faecalis ATCC 51299 infected in cyclophosphamide immunosuppressed mouse model of abdominal infection assessed as reduction in cell swelling at 1.25 to 5 mg/kg measured after 60 hrs by H and E staining based analysis; assay type: functional, organism-based; conditions: dose 1.25-5 mg/kg
[39] = system: Enterococcus faecalis; assay: Antibacterial activity against multidrug resistant Enterococcus faecalis ATCC 51299 infected in cyclophosphamide immunosuppressed mouse model of abdominal infection assessed as reduction in cell degeneration at 1.25 to 5 mg/kg measured after 60 hrs by H and E staining based analysis; assay type: functional, organism-based; conditions: dose 1.25-5 mg/kg

Row | Structure (SMILES) | MIC [1] | MIC [2] | Ratio [6] | Activity [7] | Activity [8] | Activity [9] | Activity [10] | Activity [11] | Activity [12] | Activity [13] | Activity [14] | MIC [16] | MIC [17] | MIC [18] | MIC [20] | other results
1 | CCCCCCc1c(-c2ccc(OCC(=O)CN[C@H](CCCNC(=N)N)C(=O)OC)cc2OCC(=O)CN[C@H](CCCNC(=N)N)C(=O)OC)oc2cc(OC)cc(O)c2c1=O | 2 µg/mL (≈ 2.3 µM) | 2 µg/mL (≈ 2.3 µM) | <4 | Dose-Dependent Effect | ~80% | Active | Active | inactive | Active | Active | Active | – | – | – | – | MIC [3]: 1 µg/mL; MIC [4]: 2 µg/mL; MIC [5]: 1 µg/mL
2 | CCCCCCc1c(-c2ccc(OCCCCN(C)C)cc2OCCCCN(C)C)oc2cc(OC)cc(O)c2c1=O | 1 µg/mL (≈ 1.72 µM) | 0.5 µg/mL (≈ 0.858 µM) | <4 | Dose-Dependent Effect | ~80% | Active | Active | inactive | Active | Active | Active | 1 µg/mL | 1 µg/mL | 1 µg/mL | 1 µg/mL | MIC [15]: 1 µg/mL; MIC [19]: 0.5 µg/mL
3 | CCCCCCc1c(-c2ccc(OCCCCNCCCN)cc2OCCCCNCCCN)oc2cc(OC)cc(O)c2c1=O | 0.25 µg/mL (≈ 0.39 µM) | 0.5 µg/mL (≈ 0.78 µM) | <4 | Dose-Dependent Effect | ~80% | Active | Active | inactive | Active | Active | Active | 1 µg/mL | 1 µg/mL | 1 µg/mL | 1 µg/mL | MIC [21]: 0.125 µg/mL; MIC [22]: 0.25 µg/mL; MIC [23]: 0.25 µg/mL; viability at 48 h, 64 ug/ml [24]: > 50%; viability at 48 h, 64 ug/ml [25]: > 50%; fractional inhibitory concentration index (FICI) [26]: 0.75; fractional inhibitory concentration index (FICI) [27]: 0.75; fractional inhibitory concentration index (FICI) [28]: 0.313; fractional inhibitory concentration index (FICI) [29]: 0.5; fractional inhibitory concentration index (FICI) [30]: 0.75; fractional inhibitory concentration index (FICI) [31]: 0.313; Activity [32]: 8 10^6CFU; Activity [33]: 9.4 10^6CFU; Activity [34]: Active; Activity [35]: Active; Activity [36]: 99.2%; Activity [37]: 92.2%; Activity [38]: Active; Activity [39]: Active
